Earlier results as cited in patent publication US4451566A, “Methods and apparatus for enzymatically producing ethanol” (priority 1981, dated 1984).

Test system: Glucokinase (2.7.1.2), present in liver
Details: read-out: KM for d-glucose, phosphorylation of d-glucose with ATP as phosphate donor

In the case of OC[C@H]1OC(O)[C@H](O)[C@@H](O)[C@@H]1O (stereo partly drawn) [d-glucose], the Km is listed as 100 mM.
